Reference: patent US10501447B2, “Imidazolecarboxamides and their use as FAAH inhibitors” (BIAL-PORTELA & Ca, S.A., priority 2013, dated 2019)

How the values were obtained:
[1] = CYPs metabolic stability assay in HLM; assay type: in vitro ADME, human; conditions: 1 h, 5 μM compound; for Metabolic Stability (% of Remaining) Human CYP+: with NADPH; for Metabolic Stability (% of Remaining) Human CYP−: without NADPH (control value)
Method: Stability of the test compounds was performed in MLM (mouse liver microsomes) or HLM (human liver microsomes) in the presence and in the absence of NADPH.
The stability was measured using the incubation mixture (100 μl total volume) contained 1 mg/ml total protein, MgCl2 5 mM and 50 mM K-phosphate buffer. Samples were incubated in the presence and in the absence of NADPH 1 mM. Reactions were pre-incubated 5 min and the reaction initiated with the compound under test (5 μM for HLM and 50 μM for MLM). Samples were incubated for 60 min in a shaking water bath at 37° C. The reaction was stopped by adding 100 μl of acetonitrile. Samples were then centrifuged, filtered and supernatant injected in HLPC-MSD. Test compounds were dissolved in DMSO and the final concentration of DMSO in the reaction was below 0.5% (v/v). At T0 acetonitrile was added before adding the compound. All experiments were performed with samples in duplicate.
The stability data are given as % of remaining compound after 1 h exposure to MLM or HLM. 100% means no metabolic reaction at all and 0% corresponds to full enzymatic degradation. “CYP−” refers to the absence of cofactor (NADPH) which is essential for CYP metabolic reactions. Therefore “CYP−” can be regarded as control value. “CYP+” refers to the presence of cofactor and the enzymatic degradation may take place according to the stability of the test compound.

[2] = target: T1, FAAH (Rattus norvegicus, UniProt P97612); assay: FAAH activity in liver homogenate after oral dosing of rats; assay type: in vivo; conditions: gavage; for activity at 0.1 mg/kg: rat, po
T1 construct: Liver biopsies and brain samples (without cerebellum) were collected and placed in a plastic vial containing membrane buffer; from tissue; host or cells: liver homogenate of male Wistar rats
T1 sequence (P97612 1-579): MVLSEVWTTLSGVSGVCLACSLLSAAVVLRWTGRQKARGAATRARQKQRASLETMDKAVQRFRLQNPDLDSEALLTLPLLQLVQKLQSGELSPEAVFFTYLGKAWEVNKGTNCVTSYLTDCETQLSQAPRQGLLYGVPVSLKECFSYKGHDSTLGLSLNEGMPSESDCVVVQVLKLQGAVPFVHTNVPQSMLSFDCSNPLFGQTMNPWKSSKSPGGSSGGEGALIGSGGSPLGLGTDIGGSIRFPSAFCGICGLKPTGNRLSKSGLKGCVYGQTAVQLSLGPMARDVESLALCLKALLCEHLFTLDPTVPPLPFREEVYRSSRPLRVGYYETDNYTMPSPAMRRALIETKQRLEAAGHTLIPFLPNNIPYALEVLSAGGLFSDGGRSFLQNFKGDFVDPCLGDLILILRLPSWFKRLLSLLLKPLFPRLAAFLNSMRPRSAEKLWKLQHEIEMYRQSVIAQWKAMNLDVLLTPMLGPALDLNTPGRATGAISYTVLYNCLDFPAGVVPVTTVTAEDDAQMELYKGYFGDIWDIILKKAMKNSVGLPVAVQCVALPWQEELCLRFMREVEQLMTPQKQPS
Method: In vivo testing was performed according to the protocol described below. BRh (brain homogenate) indicates inhibition in central nervous tissue, in this case, brain, and LVh (liver homogenate) indicates inhibition in peripheral tissue, in this case, liver. The controls were the reaction mix minus the test compounds. Therefore, a low value for the test compound indicates a strong inhibitor.
Male Wistar rats (body weight range: 190-230 g) were obtained from Harlan (Spain). Rats were kept 5 per cage, under controlled environmental conditions (12 hr light/dark cycle and room temperature 22±1° C.). Food and tap water were allowed ad libitum and the experiments were all carried out during daylight hours.
Rats were administered the appropriate dose of compound of the invention via gavage (administration volume=4 ml/kg body weight) using animal feeding stainless steel curve needles (Perfectum, U.S.A.). Vehicle was 0.5% CMC in Milli Q water. Rats were fasted at least 15 h before experiments.
Fifteen minutes before sacrifice animals were anesthetized with pentobarbital i.p. 60 mg/kg body weight. Liver biopsies and brain samples (without cerebellum) were collected and placed in a plastic vial containing membrane buffer (3 mM MgCl2, 1 mM EDTA, 50 mM Tris HCl pH 7.4) and, in the case of liver samples, glass beads (2.5 mm BioSpec Products). Tissues were stored at −20° C. until analysis.
Anandamide [ethanolamine-1-3H-] was obtained from American Radiochemicals (specific activity of 60 Ci/mmol). All other reagents were obtained from Sigma-Aldrich. Optiphase Supermix was obtained from Perkin Elmer.
Tissues were thawed on ice; livers were homogenized in a Precellys 24 Dual Tissue Homogenizer (Bertin Technologies) for 2 cycles of 5 sec with an interval of 5 min in ice and brains were homogenized with Heidolph Silent Crusher M (probe 8 F/M) for about 45 sec at maximum velocity. Total protein in homogenates was determined with the BioRad Protein Assay (BioRad) using a standard curve of BSA (50-250 μg/ml).
Reaction mix (total volume of 200 μl) contained: 2 μM AEA (2 μM AEA+5 nM 3H-AEA), 0.1% fatty acid free BSA, 15 μg (brain) or 1.5 μg (liver) protein, in 1 mM EDTA, 10 mM Tris pH 7.6. After 15 minutes pre-incubation at 37° C. reaction was started by the addition of the substrate solution (cold AEA+radiolabelled AEA+BSA). Reaction was carried out for 7 minutes for liver samples and for 10 min for brain samples and terminated by addition of 400 μL chloroform:methanol (1:1, v/v) solution. Reaction samples were vortex twice, left on ice for 5 minutes and then centrifuged in microfuge (7 minutes, 7000 rpm). Two-hundred μl of supernatants were added to 800 μl Optiphase Supermix scintillation cocktail previously distributed in 24-well plates. Counts per minute (cpm) were determined in a Microbeta TriLux scintillation counter. In each assay blank samples (without protein) were prepared. The percentage of remaining enzymatic activity was calculated in respect to controls and after blank subtraction.

SMILES | Metabolic Stability (% of Remaining) Human CYP+ [1] [%] | Metabolic Stability (% of Remaining) Human CYP− [1] [%] | FAAH Activity (%) rat Liver ([2]; Dose: 1 mg/k9, 1 h) [%] | FAAH Activity (%) rat Liver ([2]; Dose: 1 mg/k9, 8 h) [%] | FAAH Activity (%) rat Liver ([2]; Dose: 1 mg/k9, 24 h) [%] | activity at 0.1 mg/kg ([2]; 1 h) [%] | activity at 0.1 mg/kg ([2]; 8 h) [%]
CN(C(=O)n1cnc(-c2cccc(NS(N)(=O)=O)c2)c1)C1CCOCC1 [Compound 1, N-Methyl-4-(3-(sulfamoylamino)phenyl)-N-(tetrahydro-2H-pyran-4-yl)-1H-imidazole-1-carboxamide] | 96 | 102 | 9.8 | 4.8 | 22.7 |  | 
CCC(=O)N1CCC(N(C)C(=O)n2cnc(-c3ccc(O)c(C)c3)c2)CC1 [Compound 2, 4-(4-Hydroxy-3-methylphenyl)-N-methyl-N-(1-propionylpiperidin-4-yl)-1H-imidazole-1-carboxamide] | 100 | 94 | 25.7 | 18.2 | 17.8 | 78.2 | 59.1
Cc1cc(-c2cn(C(=O)N(C)C3CCN(C(=O)C4CC4)CC3)cn2)ccc1O [Compound 3, N-(1-(Cyclopropanecarbonyl)piperidin-4-yl)-4-(4-hydroxy-3-methylphenyl)-N-methyl-1H-imidazole-1-carboxamide] | 99 | 102 |  |  |  | 83.5 | 62.5
